Tests used:
soybeans = assay: Soybeans in a vegetation experiment in sandy loam (Example 19); type: in vivo, soybean (Gieso variety); settings: for Growth height: soil, 4 weeks; for response vs control in vivo at 3000 g/ha / response vs control in vivo at 6000 g/ha: Glycine max, 672 h, control 100, read-out: Growth height relative
Experimental: Soybean plants of the Gieso variety were grown in a neutral sandy loam. Fertilization took place at the time of sowing, with 0.5 g N as ammonium nitrate and 1.0 g P2 O5 as secondary potassium phosphate. […]
After 4 weeks, the treated plants were much shorter than the control, and looked more compact as a result of the different angle of the leaves. The prior art compound used for comparison purposes was 2,3,5-triiodobenzoic acid (T; U.S. Pat. No. 2,978,838).

Arachis hypogaea = assay: Growth-regulating action, postemergence, greenhouse (Example 35, Table 1); type: in vivo; settings: for growth height relative: control 100
Description: (§1) The vessels used for the experiments were plastic pots having a volume of 1,130 cm^3 (Table A) or paraffined paper cups having a volume of 170 cm^3 (Table B). The pots and cups were filled with a sandy loam. The seeds of the test plants-separated by species-were sown shallow. Preemergence treatment (soil treatment) was effected immediately after sowing and before germination of the seeds. Seeds lying on the surface came into contact with the active ingredients. Postemergence treatment (leaf treatment) took place at an average growth height of the plants (depending on the rate of growth) of from 6 to 10 cm. The substances were suspended, emulsified or dissolved in water as diluent and applied by means of fine nozzles. The vessels were kept in the greenhouse in a temperature range of 12° C. to 25° C., and were regularly sprinkler irrigated for the duration of the experiment. The observation period was 6 to 8 weeks.
(§2) Further experiments were carried out in the greenhouse under the condition described in Example 11. […] As the plants which were examined liked the warmth (Eupghorbia geniculate, Arachis hypogaea, Cynodon dactylon), they were kept at from 20°-30° C. Cynodon dactylon from seed was cut once and the young growth treated postemergence.

Cynodon dactylon = assay: as above; type: in vivo; settings: for growth height relative: control 100
Description: as §1, §2

grass or lawns = assay: Action on grass or lawns (Example 13); type: in vivo; settings: for First cutting, dry substance / First cutting, growth height: 19 days after treatment; for First cutting, dry substance relative / First cutting, growth height relative: control 100; for Observations (color): control normal green
Description: Lawn seed of the standard mixture Agrostis tenius (10%), Cynosurus cristatus (10%), Festuca rubra (15%), Lolium perenne (35%) and Poa praetensis (30%) was sown in a loam in large pots. The soil was fertilized with 1.5 g N as ammonium nitrate and 1 g P2 O5 as secondary potassium phosphate. After the grass had been cut twice, it was sprayed in conventional manner at a height of 4 cm with the active ingredients at various application rates. 19 days after treatment the growth height and dry substance content were determined. The treated grass was much shorter than the control, and produced a correspondingly lower amount of dry substance.
The prior art compound used for comparison purposes was maleic hydrazide (M; German 815,192).

Q: How did the Growth height (soybeans; 3.0 kg/ha) turn out when `Clc1cccc(N2N=NC3C4CC(C5N=NC45)C32)c1` (stereo not drawn) [drawing 394] was run?
A: 17.5 cm

Q: And the Growth height (soybeans; 6.0 kg/ha)?
A: 14.5 cm

Q: And the response vs control in vivo at 3000 g/ha (soybeans; 3.0 kg/ha)?
A: 76.1%

Q: What about the response vs control in vivo at 6000 g/ha (soybeans; 6.0 kg/ha) of the same compound?
A: 63%

Q: What does the source list for `Clc1ccc(N2N=NC3C4CC(C5NNC45)C32)cc1` (stereo not drawn) [drawing 395]?
A: Growth height (soybeans; 3.0 kg/ha): 13.5 cm; Growth height (soybeans; 6.0 kg/ha): 12.5 cm; response vs control in vivo at 3000 g/ha (soybeans; 3.0 kg/ha): 58.7%; response vs control in vivo at 6000 g/ha (soybeans; 6.0 kg/ha): 54.4%

Q: What does the source list for `FC(F)(F)c1cccc(N2C3C4CC(C5N=NC45)C32)c1` (stereo not drawn) [drawing 434]?
A: Growth height (Arachis hypogaea; 0.25 kg/ha): 8 cm; growth height relative (Arachis hypogaea; 0.25 kg/ha): 50; Growth height (Arachis hypogaea; 0.5 kg/ha): 8 cm; growth height relative (Arachis hypogaea; 0.5 kg/ha): 50; Growth height (Arachis hypogaea; 1.0 kg/ha): 7.5 cm; growth height relative (Arachis hypogaea; 1.0 kg/ha): 47; Growth height (Arachis hypogaea; 2.0 kg/ha): 5 cm; growth height relative (Arachis hypogaea; 2.0 kg/ha): 31; Growth height (Cynodon dactylon; 0.5 kg/ha): 4 cm; growth height relative (Cynodon dactylon; 0.5 kg/ha): 36; Growth height (Cynodon dactylon; 1.0 kg/ha): 4 cm; growth height relative (Cynodon dactylon; 1.0 kg/ha): 36; Growth height (Cynodon dactylon; 2.0 kg/ha): 3 cm; growth height relative (Cynodon dactylon; 2.0 kg/ha): 27

Q: How did the Growth height (soybeans; 3.0 kg/ha) turn out when `FC(F)(F)c1ccc(Cl)c(N2N=NC3C4CC(C5N=NC45)C32)c1` (stereo not drawn) [drawing 396] was run?
A: 17.5 cm

Q: And the Growth height (soybeans; 6.0 kg/ha)?
A: 13.5 cm

Q: What about the response vs control in vivo at 3000 g/ha (soybeans; 3.0 kg/ha) of the same compound?
A: 76.1%

Q: What about the response vs control in vivo at 6000 g/ha (soybeans; 6.0 kg/ha) of the same compound?
A: 58.7%

Q: How did the Growth height (Arachis hypogaea; 0.25 kg/ha) turn out when `CN(C)NC(=O)CCC(=O)O` [drawing 437, reference compound] was run?
A: 9 cm

Q: And the growth height relative (Arachis hypogaea; 0.25 kg/ha)?
A: 56

Q: And the Growth height (Arachis hypogaea; 0.5 kg/ha)?
A: 8 cm

Q: And the growth height relative (Arachis hypogaea; 0.5 kg/ha)?
A: 50

Q: And the Growth height (Arachis hypogaea; 1.0 kg/ha)?
A: 7 cm

Q: What about the growth height relative (Arachis hypogaea; 1.0 kg/ha) of the same compound?
A: 44

Q: And the Growth height (Arachis hypogaea; 2.0 kg/ha)?
A: 7 cm

Q: And the growth height relative (Arachis hypogaea; 2.0 kg/ha)?
A: 44

Q: And the Growth height (Cynodon dactylon; 0.5 kg/ha)?
A: 12 cm

Q: And the growth height relative (Cynodon dactylon; 0.5 kg/ha)?
A: 109

Q: What about the Growth height (Cynodon dactylon; 1.0 kg/ha) of the same compound?
A: 12 cm

Q: And the growth height relative (Cynodon dactylon; 1.0 kg/ha)?
A: 109

Q: What about the Growth height (Cynodon dactylon; 2.0 kg/ha) of the same compound?
A: 9 cm

Q: And the growth height relative (Cynodon dactylon; 2.0 kg/ha)?
A: 82

Q: `Brc1ccc(N2N=NC3C4CC(C5N=NC45)C32)cc1` (stereo not drawn) [drawing 379] was tested. Which “First cutting, dry substance” value (grass or lawns; 0.25 kg/ha) did it give?
A: 12.8 g

Q: What about the “First cutting, growth height” value (grass or lawns; 0.25 kg/ha) of the same compound?
A: 25.0 cm

Q: What about the “First cutting, dry substance relative” value (grass or lawns; 0.25 kg/ha) of the same compound?
A: 102.4

Q: And the “First cutting, growth height relative” value (grass or lawns; 0.25 kg/ha)?
A: 98.0

Q: What about the “Observations (color)” value (grass or lawns; 0.25 kg/ha) of the same compound?
A: normal green

Q: What about the “First cutting, dry substance” value (grass or lawns; 0.5 kg/ha) of the same compound?
A: 11.4 g

Q: And the “First cutting, growth height” value (grass or lawns; 0.5 kg/ha)?
A: 24.0 cm

Q: And the “First cutting, dry substance relative” value (grass or lawns; 0.5 kg/ha)?
A: 91.2

Q: And the “First cutting, growth height relative” value (grass or lawns; 0.5 kg/ha)?
A: 94.1

Q: And the “First cutting, dry substance” value (grass or lawns; 1.0 kg/ha)?
A: 8.4 g

Q: What about the “First cutting, growth height” value (grass or lawns; 1.0 kg/ha) of the same compound?
A: 21.5 cm

Q: And the “First cutting, dry substance relative” value (grass or lawns; 1.0 kg/ha)?
A: 67.2

Q: And the “First cutting, growth height relative” value (grass or lawns; 1.0 kg/ha)?
A: 84.2

Q: And the “First cutting, dry substance” value (grass or lawns; 2.0 kg/ha)?
A: 6.3 g

Q: And the “First cutting, growth height” value (grass or lawns; 2.0 kg/ha)?
A: 18.0 cm

Q: And the “First cutting, chlorophyll content” value (grass or lawns; 2.0 kg/ha, control 1.33)?
A: 1.40 g Ca + b/100 g TS

Q: What about the “First cutting, dry substance relative” value (grass or lawns; 2.0 kg/ha) of the same compound?
A: 50.4

Q: And the “First cutting, growth height relative” value (grass or lawns; 2.0 kg/ha)?
A: 70.5

Q: And the “First cutting, dry substance” value (grass or lawns; 4.0 kg/ha)?
A: 4.1 g

Q: What about the “First cutting, growth height” value (grass or lawns; 4.0 kg/ha) of the same compound?
A: 12.5 cm

Q: And the “First cutting, dry substance relative” value (grass or lawns; 4.0 kg/ha)?
A: 32.8

Q: What about the “First cutting, growth height relative” value (grass or lawns; 4.0 kg/ha) of the same compound?
A: 49.0

Q: Which Growth height (Cynodon dactylon; 0.5 kg/ha) does the source give for `c1csc(N2C3C4CC(C5N=NC45)C32)n1` (stereo not drawn) here?
A: 8 cm

Q: And the growth height relative (Cynodon dactylon; 0.5 kg/ha)?
A: 73

Q: And the Growth height (Cynodon dactylon; 1.0 kg/ha)?
A: 7 cm

Q: What about the growth height relative (Cynodon dactylon; 1.0 kg/ha) of the same compound?
A: 64

Q: What about the Growth height (Cynodon dactylon; 2.0 kg/ha) of the same compound?
A: 6 cm

Q: And the growth height relative (Cynodon dactylon; 2.0 kg/ha)?
A: 54

Q: Which results are given for `Clc1ccc(N2N=NC3C4CC(C5N=NC45)C32)cc1` (stereo not drawn) [drawing 378]?
A: First cutting, dry substance (grass or lawns; 0.25 kg/ha): 10.7 g; First cutting, growth height (grass or lawns; 0.25 kg/ha): 26.0 cm; First cutting, dry substance relative (grass or lawns; 0.25 kg/ha): 85.6; First cutting, growth height relative (grass or lawns; 0.25 kg/ha): 101.9; Observations (color) (grass or lawns; 0.25 kg/ha): normal green; First cutting, dry substance (grass or lawns; 0.5 kg/ha): 8.6 g; First cutting, growth height (grass or lawns; 0.5 kg/ha): 24.0 cm; First cutting, dry substance relative (grass or lawns; 0.5 kg/ha): 68.8; First cutting, growth height relative (grass or lawns; 0.5 kg/ha): 94.1; Observations (color) (grass or lawns; 0.5 kg/ha): normal green; First cutting, dry substance (grass or lawns; 1.0 kg/ha): 7.0 g; First cutting, growth height (grass or lawns; 1.0 kg/ha): 19.0 cm; First cutting, dry substance relative (grass or lawns; 1.0 kg/ha): 56.0; First cutting, growth height relative (grass or lawns; 1.0 kg/ha): 74.5; Observations (color) (grass or lawns; 1.0 kg/ha): normal green; First cutting, dry substance (grass or lawns; 2.0 kg/ha): 4.8 g; First cutting, growth height (grass or lawns; 2.0 kg/ha): 16.0 cm; First cutting, dry substance relative (grass or lawns; 2.0 kg/ha): 38.4; First cutting, growth height relative (grass or lawns; 2.0 kg/ha): 62.7; Observations (color) (grass or lawns; 2.0 kg/ha): dark green; First cutting, dry substance (grass or lawns; 4.0 kg/ha): 3.1 g; First cutting, growth height (grass or lawns; 4.0 kg/ha): 10.5 cm; First cutting, dry substance relative (grass or lawns; 4.0 kg/ha): 24.8; First cutting, growth height relative (grass or lawns; 4.0 kg/ha): 41.1; Observations (color) (grass or lawns; 4.0 kg/ha): dark green

Source: patent US4257941A, “Polycyclic nitrogen-containing compounds” (BASF Aktiengesellschaft, priority 1976, dated 1981)
